From patent US10329309B2, “3-(3H-imidazo[4,5-B]pyridin-2-yl)-1H-pyrazolo[4,3-B]pyridines and therapeutic uses thereof” (Samumed, LLC, priority 2015, dated 2019)

Experiments:
SW480 colon cancer cells = assay: Cell viability assay (CellTiter-Blue), four days; assay type: cell-based; details: Homo sapiens, 96 h; for EC50: CellTiter-Blue cell viability; for inhibition at 10 µM: read-out: percent inhibition at 10 μM (given for EC50 of >10 μM)
Method in brief: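 Approximately 2×10^3 SW480 cells per well are seeded with compound (8 points, threefold steps, top 10 μM) and incubated four days at 37 °C. CellTiter-Blue is then added for about 3 h and fluorescence read. Non-linear regression gives EC50; for values beyond 10 μM, percent inhibition at that concentration is listed.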

[1] = tested on: primary human fibroblasts derived from IPF patients (LL29 cells), α-smooth muscle actin (αSMA); assay: Inhibition of the fibrotic process: TGF-β1-treated primary human fibroblasts from IPF patients, αSMA staining; assay type: cell-based; details: Fibroblast, 96 h, 4 days; for EC50: LL29 fibroblasts from IPF patients, TGF-β1 20 ng/mL, inhibition of fibrotic process; for inhibition at 10 µM: LL29 fibroblasts, TGF-β1 treated, read-out: percent inhibition at 10 μM (given for EC50 of >10 μM)
Method in brief: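 Compound dilutions from 10 μM down to […] are dispensed, LL29 cells added in F12 with 1% FBS, and TGF-β1 (20 ng/mL) follows after 1 h. After 4 days, live-cell αSMA positivity is measured by immunofluorescence and normalized to TGF-β1-treated wells to derive EC50.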

Row | SMILES | EC50 (SW480 colon cancer cells) | inhibition at 10 µM (SW480 colon cancer cells) | EC50 [1] | inhibition at 10 µM [1]
1 | COc1cccc(-c2ccnc3[nH]c(-c4n[nH]c5ccc(-c6cncc(O)c6)nc45)nc23)c1 [Compound 1030, 5-(3-(7-(3-Methoxyphenyl)-3H-imidazo[4,5-b]pyridin-2-yl)-1H-pyrazolo [4,3-b]pyridin-5-yl)pyridin-3-ol] | > 10 µM | 3% | > 10 µM | 48%
2 | c1cc(-c2ccc3c(c2)OCO3)c2nc(-c3n[nH]c4ccc(C5CCNCC5)nc34)[nH]c2n1 [Compound 1108, 3-(7-(Benzo[d][1,3]dioxol-5-yl)-3H-imidazo[4,5-b]pyridin-2-yl)-5-(piperidin-4-yl)-1H-pyrazolo[4,3-b]pyridine] | > 10 µM | 0% | > 10 µM | 0%
3 | C1=C(c2ccc3[nH]nc(-c4nc5c(-c6ccc7c(c6)OCO7)ccnc5[nH]4)c3n2)CCNC1 [Compound 1109, 3-(7-(Benzo[d][1,3]dioxol-5-yl)-3H-imidazo[4,5-b]pyridin-2-yl)-5-(1,2,3,6-tetrahydropyridin-4-yl)-1H-pyrazolo[4,3-b]pyridine] | > 10 µM | 10.9% | 6.2 µM | 
4 | Cn1cc(-c2ccc3[nH]nc(-c4nc5c(-c6ccc(F)cc6)ccnc5[nH]4)c3n2)c(CO)n1 [Compound 1129, (4-(3-(7-(4-Fluorophenyl)-3H-imidazo[4,5-b]pyridin-2-yl)-1H-pyrazolo[4,3-b]pyridin-5-yl)-1-methyl-1H-pyrazol-3-yl)methanol] | > 10 µM | 16.9% | 0.342 µM | 
5 | Cn1cc(-c2ccc3[nH]nc(-c4nc5c(N6CCCCC6)ccnc5[nH]4)c3n2)c(CO)n1 [Compound 1134, (1-Methyl-4-(3-(7-(piperidin-1-yl)-3H-imidazo[4,5-b]pyridin-2-yl)-1H-pyrazolo[4,3-b]pyridin-5-yl)-1H-pyrazol-3-yl)methanol] | > 10 µM | 18.1% | 0.149 µM | 
6 | Cn1cc(-c2ccc3[nH]nc(-c4nc5c(-c6ccc7c(c6)OCO7)ccnc5[nH]4)c3n2)c(CO)n1 [Compound 1152, (4-(3-(7-(Benzo[d][1,3]dioxol-5-yl)-3H-imidazo[4,5-b]pyridin-2-yl)-1H-pyrazolo[4,3-b]pyridin-5-yl)-1-methyl-1H-pyrazol-3-yl)methanol] | > 10 µM | 28.2% | 0.317 µM | 
